Data on 6 compounds can be found in patent US9474730B2, “Methods and compositions for use with K-ras mediated disorders” (Board of Regents of the University of Texas System, priority 2012, dated 2016).

SMILES strings stand for the structures.

In data set [1] the target is T1, GFP-CTH (mGFP-tagged C-terminal region of H-ras) in MDCK cells (Homo sapiens, UniProt P01112).
T1 construct: hypervariable region of H-ras (amino acids 166-189) cloned onto the carboxy terminus of monomeric GFP; expressed in transfected cells
In words: High throughput cell-based screen: plasma membrane localization of GFP-CTH. The settings on record: positive control. Details: species or system canine.

In data set [2] the test system is BHK cells stably expressing K-rasG12V. The experiment in a line: Signaling downstream of oncogenic K-ras by quantitative Western blotting. In kind it is cell-based, hamster. The settings on record: other Ca2+ channel blockers and ionomycin. The method, then:
FIG. 5: Illustrates that fendiline HCl inhibits Raf kinase activity and signaling downstream of oncogenic K-ras: BHK cells stably expressing K-rasG12V were treated with vehicle or fendiline HCl (6 μg/mL) for 48 h. (A) Raf kinase activity in membrane fractions prepared from the cells was measured in a coupled […] kinase assay. Data is shown as mean±SEM from 3 independent experiments. (B) ppMEK and ppERK in soluble protein fraction and pAkt levels in membrane protein fraction were measured by quantitative Western blotting. Actin and Akt were used as loading controls for soluble and membrane fractions, respectively. A representative blots are shown. Data is shown as mean±SEM from 3-4 independent experiments. Statistical significance was calculated using one way ANOVA and Student's T-test. (*=p<0.05), wherein experimentation was performed in accordance with principles described herein;
(§1) Preparation of whole-cell lysates: cells were lysed in Buffer B (50 mM Tris [pH 7.5], 75 mM NaCl, 25 mM NaF, 5 mM MgCl2, 5 mM EGTA, 1 mM dithiothreitol, 100 μM NaVO4, 1% Nonidet P-40 plus protease inhibitors). Cellular fractionation: cells were incubated in Buffer A (10 mm Tris-HCl, pH 7.5, 25 mm NaF, 5 mm MgCl2, 1 mm EGTA, 1 mm dithiothreitol, 100 μm NaVO4 plus protease inhibitors) for 30 minutes on ice and lysed by passing through a 27 G needle 30 times. The post nuclear supernatant was centrifuged at 100,000 g for 30 minutes and the membrane pellet was resuspended in Buffer A containing 1% Triton X-100.
Quantification of intensities was performed using FluorChemQ software.

The target of data set [3] is T2, GFP-K-rasG12V in MDCK or BHK cells (Homo sapiens, UniProt P01116, G12V).
T2 construct: MDCK and BHK cells expressing GFP-tagged full length constitutively active Ras (G12V) proteins; expressed in transfected cells
The experiment in a line: Cellular fractionation (P100/S100) with quantitative Western blotting, GFP-K-rasG12V. It is filed as cell-based, canine (MDCK), hamster (BHK). The settings on record: 48 hours. The method, then:
Following treatment, membrane (P100) and soluble (S100) protein fractions were prepared and analyzed by quantitative Western blotting.
as §1
(§2) SDS-PAGE and Western blotting with the specified antibody were performed using 20 μg of each whole cell lysate/P100 fraction and volumes of S100 equal to that of the corresponding P100. Signal was detected by enhanced chemiluminescence (SuperSignal; Pierce, Thermo Fisher Scientific, Rockford, Ill.) and imaged by FluorChemQ (Alpha Inotech, San Leandro, Calif., USA). Quantification of intensities was performed using FluorChemQ software.

Data set [4] has as its system MAPK activation (pERK) in Hec1A cells. The settings on record: 48 h. The method, then: as §2
Data set [5] addresses T3, GFP-CTK (mGFP-tagged C-terminal region of K-ras) in MDCK cells (Homo sapiens, UniProt P01116).
T3 construct: hypervariable region of K-ras (amino acids 166-188) cloned onto the carboxy terminus of GFP; expressed in transfected cells
In words: High throughput cell-based screen: plasma membrane localization of GFP-CTK. The settings on record: positive control, 250 ng/mL UCN-01, MDCK. Details: species or system canine. The method, then:
FIG. 1: Illustrates results of a high throughput cell-based screening of chemical libraries: Madin-Darby Canine Kidney epithelial cells (MDCK) expressing monomeric green fluorescent protein (mGFP)-tagged C-terminal region of K- or H-ras (GFP-CTK and GFP-CTH) were seeded in 96 well plates and treated with drug libraries for 48 h. Cells were then fixed with paraformaldehyde and imaged by BD Pathway Imager in confocal mode; shown are representative images of cells treated with vehicle, […], and 10 μM FTI-276; wherein experimentation was performed in accordance with principles described herein;
In accordance with some embodiments described herein, wild type MDCK cells or MDCK cells expressing monomeric green fluorescent protein (mGFP)-tagged C-terminal region of K-ras or H-ras (GFP-CTK and GFP-CTH respectively) were seeded in triplicate in 96 well plates (Matrical) at a density of 30,000 cells/well and incubated for 24 h at 37° C. Compounds were individually added to test cells at a concentration of 4 μg/mL (concentration of DMSO 1%) and incubated for a further 48 h.
Cells were then fixed with 4% paraformaldehyde and stored in PBS at 4° C. until imaged. Plates were imaged using a BD Pathway High-Throughput Bioimager. Images were acquired by a 3×3 montage with 20× objective lens using GFP-confocal mode. […]

Data set [6] deals with K-Ras-transformed Hec1A cells. In words: Proliferation assay (MTS), Hec-1a, fendiline versus U0126. The settings on record: 48 h, single dose of fendiline, U0126 renewed every 24 h.
Experimental: The number of viable cells was quantified (absorbance at 490 nm) using the CellTiter 96 AQueous One Solution cell proliferation assay kit (Promega). […] Cell numbers were normalized to the corresponding vehicle-treated control. Statistical significance was calculated using Student's t test (*, P<0.05). […] Cell numbers were quantified using the CellTiter 96 AQueous One Solution cell proliferation assay (MTS) (Promega), according to the manufacturer's protocol.
The next data set concerns SNU-C1 cells. The experiment in a line: Proliferation assay (MTS), SNU-C1. In kind it is cell-based. The settings on record: 72 h; wild type K-Ras. The method, then:
(§3) (A) A panel of wild-type (WT) or oncogenic mutant (Mut) K-Ras-expressing tumor cells were seeded in 96-well plates and treated for 72 h with vehicle (DMSO) or various concentrations of fendiline. […] The graphs show relative mean numbers of viable cells±SEMs from 3 independent experiments. Cell lines expressing oncogenic mutant K-Ras are shown in red, and cell lines that express wild-type K-Ras are shown in black. NCI H1299 cells (shown in blue) express wild-type K-Ras but mutant N-Ras. CaCO-2 cells (shown in green) overexpress wild-type K-Ras. (B) K-Ras levels in whole-cell lysates of SNU-C1, CaCO-2, and SK-CO-1 cells were quantified by Western blotting. The graphs show means±SEMs for 3 isolates of each cell line (indicated as 1, 2, and 3). K-Ras expression was normalized to the SNU-C1 sample.
(§4) After 24 h, fresh growth medium supplemented with 1% vehicle (DMSO), various concentrations of fendiline, or U0126 was added and cells were grown for 48 h or 72 h.

For data set [7], the system named is tumor cell lines expressing oncogenic mutant or wild-type K-Ras. The experiment in a line: Proliferation assay (MTS), panel of pancreatic, endometrial, lung and colon tumor cell lines. In kind it is cell-based. The settings on record: 72 h, various concentrations. The method, then:
as §3, §4

Data set [8] deals with CaCO-2 colon cancer cell line. In words: Proliferation assay (MTS), CaCO-2. It is filed as cell-based. The settings on record: 72 h; wild type K-Ras, overexpressed. The method, then: as §3, §4

T1 sequence (P01112 166-189 limits assumed): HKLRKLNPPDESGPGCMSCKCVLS

With `CSCC[C@H](NC(=O)c1ccc(NC[C@@H](N)CS)cc1-c1ccccc1)C(=O)O` [FTI-276], the “localization of GFP-CTH” value in [1] (10 μM FTI-276, MDCK) was “causes cytoplasmic localization of GFP-CTH”.

On to `C[C@H](CCC(=O)O)C[C@H](C)C[C@H](C)C(=O)/C=C(\O)[C@H](C)C[C@H](C)C/C=C/[C@@H](C)[C@@H](O)[C@@H](C)[C@@H](O)C[C@@H]1CC[C@@](C)([C@H]2CC[C@@](C)([C@@H](C)O)O2)O1` [Ionomycin, ionomycin], for which the “effect on Ras signaling” value in data set [2] is given as “None of the other Ca^2+ channel blockers tested or ionomycin had any effect on Ras signaling”. Moreover, the “localization of Ras proteins (fractionation)” value in data set [3] (ionomycin 1 μM, GFP-K-rasG12V or GFP-H-rasG12V) is “did not significantly alter the localization of Ras proteins”.

For `N#CC(=C(/N)Sc1ccccc1N)/C(C#N)=C(\N)Sc1ccccc1N` [U0126], the “inhibition of MAPK activation (pERK levels), relative potency” value in data set [4] is “much more potent than fendiline”.

In the case of `CN[C@@H]1C[C@H]2O[C@@](C)([C@@H]1OC)n1c3ccccc3c3c4c(c5c6ccccc6n2c5c31)C(=O)N[C@@H]4O` [UCN-01], the “localization of GFP-CTK” value in data set [5] is “causes mislocalization of both GFP-CTK and GFP-CTH”. Further, the “localization of GFP-CTH” value in [1] (250 ng/mL UCN-01, MDCK) was “causes mislocalization of both GFP-CTK and GFP-CTH”.

For `COc1ccc([C@@H]2Sc3ccccc3N(CCN(C)C)C(=O)[C@@H]2OC(C)=O)cc1` [diltiazem], the “localization of GFP-K-rasG12V (fractionation)” value in data set [3] (other Ca2+ channel blockers, 10 μM) is “None of the other Ca^2+ channel blockers altered the localization of GFP-K-rasG12V”.

With `CC(NCCC(c1ccccc1)c1ccccc1)c1ccccc1` (centres unmarked) [fendiline, 3,3-diphenyl-N-(1-phenylethyl)propan-1-amine], the “inhibition of cell proliferation, relative potency” value in data set [6] is “significantly more potent than U0126”. In addition, the “inhibition of proliferation of SNU-C1” value in the data set with SNU-C1 cells is on record as “unresponsive”. For the same compound, the “inhibition of proliferation, oncogenic mutant versus wild-type K-Ras tumor cells” value in [7] is “more potently inhibited the proliferation of tumor cells that express oncogenic mutant K-Ras than tumor cells that express wild-type K-Ras”. Besides, the “inhibition of proliferation of CaCO-2” value in data set [8] was “potently inhibited”.
